Laboratory results: patent US5795885A, “Method of inhibiting profileration of cells by administering an aminosterol compound” (priority 1995, dated 1998)

Experiments:
[1] = system: chick embryo vitelline capillaries; experiment: chick embryo vitelline capillary regression assay; format: in vivo; design: key to vitelline capillary regression: +: Vascular reactivity; 0: No vascular reactivity; +/-: Equivocal reactivity; settings: for vitelline capillary regression: 60 minutes
How it was run: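 Compounds applied to 3- to 5-day chick embryos in 0.1 ml of 15% Ficol 400 in PBS. Regression of vitelline capillaries, seen as pinching-off of capillary loops into enclosed sacs, was scored visually after 60 minutes.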

[2] = system: human epithelial cell line MCF 10A; experiment: growth inhibition of human epithelial cells in vitro; format: cell-based; settings: 10 μg/ml
[3] = system: bovine pulmonary endothelial cells; experiment: growth inhibition of bovine pulmonary endothelial cells in vitro; format: cell-based; settings: 1 μg/ml

`CC(C)[C@@H](CC[C@@H](C)[C@H]1CC[C@H]2[C@@H]3[C@H](O)C[C@H]4C[C@@H](NCCCNCCCCN)CC[C@]4(C)[C@H]3CC[C@]12C)OS(=O)(=O)O` [Squalamine, squalamine] was tested, and the vitelline capillary regression ([1]; 0.001 μg applied) was 0, the vitelline capillary regression ([1]; 0.01 μg applied) was “+” and the vitelline capillary regression ([1]; 0.1 μg applied) was “+”. The vitelline capillary regression ([1]; 1 μg applied) was “+”, the vitelline capillary regression ([1]; 10 μg applied) was “+” and the hemolysis ([1]; 0.1 ml in 15% Ficol in PBS) was “absence of hemolysis”. The hemorrhage ([1]; 0.1 ml in 15% Ficol in PBS) was “No hemorrhage was seen”, the “lag period before vessel constriction” value ([1]; 0.1 ml in 15% Ficol in PBS) was “around 15 minutes” and the “activity in vitelline capillary regression assay (in words)” value ([1]; in vivo) was “especially active”. The “effect on chick embryo vitelline capillaries (in words)” value ([1]; in vivo) was “found to disrupt vitelline capillaries in 3- to 5-day chick embryos”, the “growth of epithelial line” value [2] was “no effect on the growth” and the “growth of bovine pulmonary artery endothelial cells (BPE)” value [3] was “inhibited the growth”.
